The values below come from patent US20200017495A1, “NOVEL HETEROCYCLIC COMPOUNDS AND THEIR USE IN PREVENTING OR TREATING BACTERIAL INFECTIONS” (priority 2017, published 2020).

A short description of the series: Rat intraduodenal bioavailability determination. The conditions noted are these: 10 mg/kg, AF2 titrated in plasma. It is filed as in vivo, Male Sprague-Dawley (SD) rats. The method, then:
Method 3: Rat Intraduodenal Bioavailability Determination (Table 7) Intravenous (jugular) or intraduodenal catheterized Male Sprague-Dawley (SD) rats (250-270 g) were obtained from Janvier Labs (Le Genest-Saint-Isle, France). All rats were housed in a −temperature (20±2° C.) and −humidity (55%±10%) controlled room with 12h light/dark cycle, and were acclimatized for at least 4 days before experimentation. Water and food were available ad libitum throughout the study. All rats were handled in accordance with the institutional and national guidelines for the care and use of laboratory animals. Rats were allocated to two groups based on the administration route: intravenous or intraduodenal administration (n=3/group). In the intravenous administration study, drugs (10 mg/kg in phosphate buffer 10 mM, pH7.4) were administered under isoflurane anesthesia via the catheter placed in the jugular vein. […] The pharmacokinetic parameters were calculated using XLfit (IDBS) and Excel (Microsoft) software, using standard non-compartmental methods. The intraduodenal bioavailability was calculated by dividing the AUC obtained from the intraduodenal administration by the AUC obtained from the intravenous administration.

With `O=C1N2CC(c3ncco3)=CC(C2)N1OC(F)(F)C(=O)[O-].[Li+]` (centres unmarked) [AF2], under “intravenous”, the “AUC 0-∞” value is 10789 ng·h/mL. Moreover, the AUC(0-inf) (male, Sprague-Dawley, plasma, iv) was 11000 ng·h/mL.
